Reference: patent US20250339531A1, “DUX4 POLYPEPTIDES AND NUCLEIC ACIDS FOR TREATING INFLAMMATORY AND AUTOIMMUNE CONDITIONS” (Fred Hutchinson Cancer Center, priority 2021, published 2025)
“Also recorded” adds a separate entry of the source.

What was measured:
STAT1 = assay: Anti-FLAG co-immunoprecipitation and western blot for STAT1; type: binding, human; conditions: anti-FLAG IP from MB135 cells ± IFNG
Procedure: Centrifugation at 2500 rcf at 4° C. for 5 min pelleted the nuclei, supernatant was discarded, and nuclei resuspended in 1 mL IP buffer pH 7.4 (25 mM Tris-HCl pH 7.5, 175 mM NaCl, 1 mM EDTA, 0.2% NP-40, 5% glycerol) and incubated for 1 hour at 4° C. with rotation then spun at 21000 rcf for 10 minutes at 4° C. to pellet insoluble debris. Protein concentration was determined using the Pierce BCA Protein Assay Kit (ThermoFisher, 23225). An equivalent amount of protein per sample was pre-cleared with Dynabeads Protein G (Invitrogen) bound to mouse IgG (Abcam #131368) for 1 hour at 4° C. with rotation. FLAG-tagged constructs were then immunoprecipitated with Dynabeads Protein G beads coupled to mouse anti-FLAG M2 mAb (Sigma F3165) for 3 hours at 4° C. with rotation. Beads were washed 3× with 1 mL IP buffer and eluted by adding 2× NuPage LDS Sample Buffer (Thermo Fisher, diluted from 4× with PBS) to the beads and heating for 10 minutes at 70° C.
Antibodies against STAT1 [EPR4407] (ab109320), pSTAT1 Y701 [M135] (ab29045), pSTAT1 S727 [EPR3146] (ab109461), YBX1 [EP2708Y] (ab76149), PABPC1 (ab21060), hnRNPM [EPR13509 (B)] (ab177957), PRKDC [Y393] (ab32566), and HSP90AB1 [EPR16621] (ab203085) were purchased from Abcam. Antibodies against FLAG tag [M2] (F1804) and [M2] (F3146) were purchased from Sigma Aldrich. Antibodies against DDX3X [D19B4] (8192S), hnRNPK [R332] (4675S), TRIM28 [C42G12] (4124S), PPP2R1A [81G5] (2041S), NCL [D4C70] (14574S), and MYC tag [71D10] (2278S), and IDO1 [D5J4E] (86630S) were purchased from Cell Signaling Technology. Antibodies against hnRNPU (14599-1-AP), CDK4 (11026-1-AP), and HAT1 (11432-1-AP) were purchased from ProteinTech. The antibody against HSPA8 [SR39-04] (PIMA532002) was purchased from ThermoFisher. The antibody against DUX4 (P2G4) was described previously (Geng et al., 2011, Immunodetection of human double homeobox 4. Hybridoma (Larchmt) 30, 125-130). The antibodies Goat anti-Rabbit IgG HRP (ThermoFisher, A27036) and Rat anti-Mouse IgG HRP for IP (Abcam, ab131368) were used as secondary antibodies against rabbit and mouse primary antibodies for western blotting.

[1] = test system: STAT1 binding to ISG promoters (GBP1, IDO1, CXCL10); assay: STAT1 chromatin immunoprecipitation (ChIP-qPCR) at ISG promoters; type: cell-based, human; conditions: MB135-iDUX4-CTD cells, IFNG ± doxycycline
Procedure: Chromatin immunoprecipitation (ChIP) was performed as previously described (Nelson et al 2006) with the following modifications: Cells were plated and allowed to grow to 70-80% confluence. Pelleted nuclei were sonicated on a Diagenode Biruptor on “Low” for 10 min as 30 sec on/30 sec off, followed by 6 rounds of sonication on “High” for 10 min each as 30 sec on/30 sec off (70 minutes total sonication) in IP Buffer+0.5% SDS. For immunoprecipitation, 500 ng of chromatin was set aside per condition as an “Input” and 4 μg of antibody was added to 10 μg of chromatin in an equal volume of IP Buffer+0.5% SDS across samples. IP Buffer (150 mM NaCl, 50 mM Tris-HCl pH 7.4, 5 mM EDTA, 1% Triton X-100, 0.5% NP-40, +Roche complete mini protease inhibitor EDTA-free) was added to lower the percentage of SDS <0.1%, and tubes were incubated with rotation overnight at 4° C. During this time, protein-A agarose Fastflow beads (Millipore) were washed twice with IP Buffer and then blocked in IP Buffer containing 2% BSA by rotating overnight at 4° C. After clearing the chromatin as described, beads were aliquoted to fresh tubes and the top 90% of chromatin was transferred to the tubes containing the blocked bead slurry. Tubes were rotated for 1 hour at 4° C. […]

[2] = test system: RPL10A, RPL4, RPS6, RPS15A, MYOD1, DES; assay: Immunoblot of ribosomal proteins and myogenic factors; type: cell-based, human; conditions: DUX4 pulse+IFNG relative to IFNG
Procedure: Protein samples were harvested in RIPA buffer [150 mM NaCl, 1% NP-40, 0.5% Na-deocycholate, 1% SDS, 25 mM Tris-HCl pH7.4] supplemented with protease and phosphatase inhibitor tablets (Pierce), followed by sonication in Diagenode Bioruptor. Lysate was cleared by centrifugation at 16000×g and quantified using a Pierce BCA assay (Thermo Fisher Scientific). Samples were run on NuPAGE precast polyacrylamide gels (Invitrogen) and transferred to PVDF membrane. Membranes were blocked in PBS containing 0.1% Tween-20 and 5% non-fat dry milk before overnight incubation at 4° C. with primary antibodies (see resource table for a list of antibodies used in this study). Membranes were incubated with horseradish peroxidase-conjugated secondary antibodies for 1 hour at room temperature and SuperSignal chemiluminescent substrate (Thermo Scientific) was used for detection on film with a Mini-medical 90 processor. Membranes were stripped with Restore Western Blot Stripping Buffer (Pierce).

Row | Substance | co-immunoprecipitation with STAT1 / phosphorylated STAT1 (STAT1; listed as DUX4-CTD) | co-immunoprecipitation with STAT1 / phosphorylated STAT1 (STAT1; listed as DUX4 CTD) | co-immunoprecipitation with STAT1 / phosphorylated STAT1 (STAT1; listed as DUX4 longCTD) | STAT1 occupancy at ISG promoters [1] | protein levels of ribosomal proteins and myogenic factors [2]
1 | longCTD: 3×FLAG tag and nls in frame with carboxyterminal 271 amino acids of DUX4 (aa154-424), SEQ ID NOS: 8-9 | phosphorylation at Y701 is necessary for enhanced interaction; also recorded: preferentially interacts with pSTAT1-Y701 | showed stronger interaction with phosphorylated STAT1 | both show binding to STAT1; also recorded: STAT1 is associated | diminished STAT1 occupancy at all three ISGs; also recorded: moderately decreases STAT1 occupancy at ISG promoters | –
2 | DUX4: human DUX4 protein SEQ ID NO:3 expressed from doxycycline inducible codon altered transgene SEQ ID NO:2 | – | – | – | – | RPL10A, RPL4, RPS6, and RPS15A are suppressed by DUX4; also recorded: both were suppressed at the protein level
